Measurements reported in paper PMC4946363 (Cancer Research and Treatment : Official Journal of Korean …, 2016).
Where a name gives a salt, the structure may show the parent alone. One block for each compound: values may come before it.

Tests used:
[1] = test system: myeloid blast crisis and lymphoid blast crisis; conditions: cited from earlier work
[2] = Stability of imatinib in the LC-MS/MS bioanalytical method validation
[3] = oral; cited from earlier work
CML = CML patients; cited from earlier work

Compound: Cc1ccc(NC(=O)c2ccc(CN3CCN(C)CC3)cc2)cc1Nc1nccc(-c2cccnc2)n1 [imatinib mesylate]
Response rate, lymphoid blast crisis ([1]; oral 300-1,000 mg/day, 14 out of 20 patients): 70% | Response rate, myeloid blast crisis ([1]; oral 300-1,000 mg/day, 21 out of 38 patients): 55% | Complete hematologic response, myeloid blast crisis ([1]; oral 300-1,000 mg/day): 19% | Complete hematologic responses, lymphoid blast crisis ([1]; oral 300-1,000 mg/day): 20%

In-injector stability, % change, HQC ([2]; 2-8°C, ~77 hr, high quality control): –5.6% | In-injector stability, % change, LQC ([2]; 2-8°C, ~77 hr, low quality control): 4.6% | Freeze thaw stability, % change, HQC ([2]; 3 cycles, high quality control): –6.1% | Freeze thaw stability, % change, LQC ([2]; 3 cycles, low quality control): 2.2% | Long-term stability, accuracy, HQC ([2]; 70 days, high quality control): 97.4% | Long-term stability, accuracy, LQC ([2]; 70 days, low quality control): 95.7% | Long-term stability, accuracy, MQC ([2]; 70 days, medium quality control): 101.5% | Bench top stability, % change, HQC ([2]; room temperature, ~7 hr, high quality control): –7.2% | Bench top stability, % change, LQC ([2]; room temperature, ~7 hr, low quality control): 10.2% | Inter-patient CV, lnAUC0-24 (ln-transformed AUC0-24): 25.2% | Intra-patient CV, lnAUC0-24 (ln-transformed AUC0-24, test and reference together): 12.3% | Inter-patient CV, lnCmax (ln-transformed Cmax): 20.4% | Intra-patient CV, lnCmax (ln-transformed Cmax, test and reference together): 13.6%
Compound: Cc1ccc(NC(=O)c2ccc(CN3CCN(C)CC3)cc2)cc1Nc1nccc(-c2cccnc2)n1 [imatinib]
Duration of remission from the commencement of therapy ([1]; responding patients continued on imatinib treatment): 101 to 349 days | Time to attain peak plasma concentration (Cmax) [3]: 2 to 4 h

Compound: interferon-α [IFN-α]
Cytogenetic remission (CML): 6%-20%
